In patent US5935591A, “Method for treatment of equine protozoal myeloencephalitis with thiazolides” (Romark Laboratories, L.C., priority 1998, dated 1999):
Converted amounts (≈) assume the structure as drawn. Read-outs that look alike come from different tables or passages of the source.

Key:
[1] = tested on: Thysanezia ovilla; settings: single oral dose; sheep; cited from earlier work
[2] = tested on: Taenia taeniaeformis; settings: single oral dose; cats; cited from earlier work
[3] = tested on: Hymenolepis nana; settings: mice; cited from earlier work
[4] = tested on: Syphacia obvelata; settings: mice; cited from earlier work
[5] = cited from earlier work
[6] = tested on: Trichuris vulpis; settings: repeated doses; dogs; cited from earlier work
[7] = tested on: equine protozoal myeloencephalitis (Sarcocystis infection); assay: treatment of horses with nitazoxanide: symptoms of EPM; format: in vivo, horse
Experimental: (§1) All dosages were administered in solid (tablet) form.
(§2) This horse was positive for Sarcocystis infection in CSF and serum. […] The horse injured both hocks on day 12 by kicking the stall, resulting in edema of both rear limbs. […] On day 17 he was back to eating normally. Symptoms of EPM were gone by day 10 and have not returned.
(§3) This horse was positive for Sarcocystis infection in serological testing for antibody, showing no symptoms of the disease.
(§4) This horse was positive for Sarcocystis in serological testing for antibody, showing no symptoms of the disease.

[8] = tested on: Avitellina centripunctata; settings: single oral dose; sheep; cited from earlier work
[9] = safety and tolerance of nitazoxanide in horses; format: in vivo, horse; settings: for tolerance of the drug: oral
Experimental: as §1, §2, §3, §4

[10] = tested on: Dipylidium caninum; settings: single oral dose; dogs; cited from earlier work
[11] = tested on: facultative and obligate anaerobic Gram positive and Gram negative bacteria; settings: cited from earlier work
[12] = tested on: Stilesia globipunctata; settings: single oral dose; sheep; cited from earlier work
[13] = tested on: Sarcocystis spp.; assay: in vitro test system for activity against Sarcocystis spp.; format: cell-based; settings: for activity in inhibiting the growth of the protozoa: in words
[14] = tested on: Gram positive bacteria such as Staphylococcus aureus; settings: cited from earlier work
[15] = tested on: protozoan and helminthic pathogens; settings: cited from earlier work
[16] = tested on: Moniezia expansa; settings: single oral dose; sheep; cited from earlier work
[17] = tested on: Taenia pisiformis; settings: single oral dose; dogs; cited from earlier work
[18] = tested on: Uncinaria stenocephala; settings: repeated doses; dogs; cited from earlier work

SMILES: CC(=O)Oc1ccccc1C(=O)Nc1ncc([N+](=O)[O-])s1 [nitazoxanide, 2-(acetolyloxy)-N-(5-nitro 2-thiazoly) benzamide]
- cestocidal effect [1]: cestocidal effect
- cestocidal effect [2]: cestocidal effect
- single dose activity [3]: activity
- effect of repeated doses [4]: effect
- solubility ([5]; "either" (so in the source)): very poorly soluble
- solubility ([5]; acetic acid): poorly soluble
- solubility ([5]; acetone): fairly soluble
- solubility ([5]; chloroform): poorly soluble
- solubility ([5]; dioxane): fairly soluble
- solubility ([5]; ethanol): poorly soluble
- solubility ([5]; methyl benzene): very poorly soluble
- solubility ([5]; pyridine): easily soluble
- solubility ([5]; water): very poorly soluble
- efficacy against gastrointestinal nematodes [6]: also observed
- day by which symptoms of EPM were gone ([7]; Horse #1, Sarcocystis positive in CSF and serum, oral tablet, 50 mg/kg days 1-6, 100 mg/kg days 9-16, 150 mg/kg days 18-25): ≤ 10 days
- reoccurrence of symptoms ([7]; Horse #1, monitoring continued for 23 days): no reoccurrence of symptoms
- symptoms at the end of the trial and during the 30-day period after the trial ([7]; five horses, oral tablets, 50-150 mg/kg): absence of any symptoms
- cestocidal effect [8]: cestocidal effect
- eating of feed ([9]; Horse #1, days 15 and 16 (100 mg/kg days 9-16), back to eating normally on day 17): slow to finish eating feed
- tolerance of the drug ([9]; Horse #2, 75 mg/kg days 1-6, 100 mg/kg days 9-16, 150 mg/kg days 18-25): tolerated the drug well at all dose levels
- tolerance of the drug ([9]; Horse #3, 75 mg/kg days 1-6, 100 mg/kg days 9-16, 150 mg/kg days 18-27): tolerated the drug well at all dose levels
- tolerance of the drug ([9]; Horse #4, 75 mg/kg days 1-6, 100 mg/kg days 9-16, 150 mg/kg days 18-27): tolerated the drug well at all dose levels
- tolerance of the drug ([9]; Horse #5, 75 mg/kg days 1-6, 100 mg/kg days 9-16, 150 mg/kg days 18-27): tolerated the drug well at all dose levels
- signs of toxicity ([9]; all five horses): no signs of toxicity
- cestocidal effect [10]: cestocidal effect
- antibacterial effect [11]: effective
- cestocidal effect [12]: cestocidal effect
- 50% inhibitory concentration (growth of the protozoa) [13]: approximately 0.475 μg/ml
- activity in inhibiting the growth of the protozoa [13]: highly active
- antibacterial effect [14]: effective
- activity against protozoan and helminthic pathogens [15]: activity against a number of protozoan and helminthic pathogens
- cestocidal effect [16]: cestocidal effect
- cestocidal effect [17]: cestocidal effect
- efficacy against gastrointestinal nematodes [18]: also observed

SMILES: O=C(Nc1ncc([N+](=O)[O-])s1)c1ccccc1O [tizoxanide]
- activity in inhibiting the growth of the protozoa [13]: highly active
- IC50 ([13]; read-out: 50% inhibitory concentration (growth of the protozoa)): ~0.475 µg/mL (≈ 1.79 µM)
